Data: ChEMBL document CHEMBL4706608, “Design and synthesis of 3-(4-pyridyl)-5-(4-sulfamido-phenyl)-1,2,4-oxadiazole derivatives as novel GSK-3β inhibitors and evaluation of their potential as multifunctional anti-Alzheimer agents” (Eur J Med Chem, 2021)
The source made the active and inactive calls. No cut-off for these calls is given here.

Key:
SH-SY5Y = test: Inhibition of H2O2-induced intracellular ROS production in human SH-SY5Y cells pretreated for 6 hrs followed by H2O2 addition measured after 18 hrs by DCFH-DA assay; assay type: functional, cell-based; details: dose 1-50 µM, time 24.0 hrs
BV-2 [1] = test: Anti-neuroinflammation in mouse BV2 cells assessed as inhibition of LPS-induced NO production preincubated for 1 hr followed by LPS addition measured after 24 hrs by Griess reagent based assay; assay type: functional, cell-based
BV-2 [2] = test: Antiinflammatory activity in LPS-stimulated mouse BV-2 cells assessed as decrease in TNF-alpha level at 1 to 10 uM preincubated for 1 hr followed by LPS addition measured after 24 hrs by ELISA; assay type: functional, cell-based; details: dose 1-10 µM, time 25.0 hrs
BV-2 [3] = test: Antiinflammatory activity in LPS-stimulated mouse BV-2 cells assessed as decrease in IL-1beta level at 1 to 10 uM preincubated for 1 hr followed by LPS addition measured after 24 hrs by ELISA; assay type: functional, cell-based; details: dose 1-10 µM, time 25.0 hrs
PC-12 [4] = test: Neuroprotective activity against H2O2-induced cytotoxicity in rat PC12 cells assessed as increase in cell viability at 30 uM preincubated for 3 hrs followed by H2O2 addition and measured after 24 hrs by MTT assay (reference value: 24.8 to 41.7%); assay type: functional
HepG2 [5] = test: Cytotoxicity against human HepG2 cells assessed as cell viability at 10 to 50 uM after 24 hrs by MTT assay; assay type: cell-based; details: hepg2, 24 h, dose 10-50 µM
[6] = Cytotoxicity against rat PC-12 cells assessed as cell viability at 50 uM by MTT assay relative to control; assay type: cell-based; details: read-out: Activity
PC-12 [7] = test: Inhibition of H2O2-induced intracellular ROS production in rat PC-12 cells pretreated for 6 hrs followed by H2O2 addition measured after 18 hrs by DCFH-DA assay; assay type: functional, cell-based; details: dose 1-50 µM, time 24.0 hrs
[8] = Apparent permeability from basolateral to apical side in MDCK2-MDR1 measured upto 120 mins; assay type: ADME, Canis lupus familiaris, MDCK-II; details: dog
[9] = Antioxidant activity assessed as DPPH radical scavenging activity after 2 hrs by microplate method; assay type: functional; details: dose 1-1000 µM
HepG2 [10] = test: Increase in glucose consumption in human HepG2 cells at 20 uM after 24 hrs by glucose oxidase assay (reference value: 1.36 mM); assay type: functional
[11] = Efflux ratio of apparent permeability across basolateral to apical membrane to apical to basolateral membrane in MDCK2-MDR1 measured upto 120 mins; assay type: ADME, tissue-based, Canis lupus familiaris, MDCK-II; details: dog
BV-2 [12] = test: Antiinflammatory activity in LPS-stimulated mouse BV-2 cells assessed as decrease in iNOS level at 1 to 10 uM preincubated for 1 hr followed by LPS addition measured after 24 hrs by Western blot analysis; assay type: functional, cell-based; details: dose 1-10 µM, time 25.0 hrs
PC-12 [13] = test: Neuroprotective activity against H2O2-induced cytotoxicity in rat PC12 cells assessed as increase in cell viability at 10 uM preincubated for 3 hrs followed by H2O2 addition and measured after 24 hrs by MTT assay (reference value: 24.8 to 41.7%); assay type: functional
[14] = Cytotoxicity against rat PC-12 cells assessed as cell viability at 30 uM by MTT assay relative to control; assay type: cell-based; details: read-out: Activity
[15] = target: T1, Glycogen synthase kinase-3 beta (Homo sapiens, UniProt P49841); test: Inhibition of GSK3beta (unknown origin) measured after 40 mins by ADP-Glo assay
Target sequence in this assay (P49841 whole entry): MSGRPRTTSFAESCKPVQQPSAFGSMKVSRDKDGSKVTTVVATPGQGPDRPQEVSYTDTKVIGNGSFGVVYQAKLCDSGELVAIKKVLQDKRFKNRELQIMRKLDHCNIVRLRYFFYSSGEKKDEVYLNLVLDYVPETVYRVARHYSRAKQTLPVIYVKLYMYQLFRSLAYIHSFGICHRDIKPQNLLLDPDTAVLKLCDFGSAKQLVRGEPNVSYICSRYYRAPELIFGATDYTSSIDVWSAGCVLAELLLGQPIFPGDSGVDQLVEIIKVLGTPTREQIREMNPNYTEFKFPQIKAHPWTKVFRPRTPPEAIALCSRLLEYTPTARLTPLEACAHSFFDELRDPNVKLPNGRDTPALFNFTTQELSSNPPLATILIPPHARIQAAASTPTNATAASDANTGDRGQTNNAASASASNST

[16] = Cytotoxicity against human L-02 cells assessed as decreased cell viability at 50 uM after 24 hrs by MTT assay relative to control; assay type: cell-based, L02; details: read-out: INH
[17] = target: T1, Glycogen synthase kinase-3 beta; test: Inhibition of GSK-3beta in human SH-SY5Y cells assessed as decrease in amyloid beta-induced Tau hyperphosphorylation at Ser396 pretreated for 1 hr followed Amyloid beta addition measured after 6 hrs by Western blot analysis; assay type: cell-based; details: dose 5-15 µM, time 7.0 hrs
Target sequence in this assay (P49841 whole entry, looked up): as the sequence (P49841 whole entry) above

BV-2 [18] = test: Antiinflammatory activity in LPS-stimulated mouse BV-2 cells assessed as decrease in cox-2 level at 1 to 10 uM preincubated for 1 hr followed by LPS addition measured after 24 hrs by Western blot analysis; assay type: functional, cell-based; details: dose 1-10 µM, time 25.0 hrs
[19] = Apparent permeability from apical to basolateral side in MDCK2-MDR1 measured upto 120 mins; assay type: ADME, Canis lupus familiaris; details: dog, mdck-ii, 2 h
Mus musculus [20] = test: Cognitive enhancing effect in orally dosed C57BL mouse model of scopolamine-induced memory impairment assessed as escape latency administered for 7 days and measured after 30 mins at 4th day of training session by Morris water maze test; assay type: functional, organism-based; details: dose 10-30 mg/kg, time 7.0 day
HepG2 [21] = test: Increase in glucose consumption in human HepG2 cells at 20 uM after 24 hrs by glucose oxidase assay; assay type: functional, cell-based
[22] = Effect on body weight in C57BL mouse model of scopolamine-induced memory impairment model at 10 to 30 mg/kg, po administered for 7 days; assay type: ADME, organism-based; details: in vivo, 168 h, dose 10-30 mg/kg, time 7 day
Mus musculus [23] = test: Cognitive enhancing effect in C57BL mouse model of scopolamine-induced memory impairment assessed as time in target quadrant at 10 to 30 mg/kg, po administered for 7 days and measured after 30 mins at 5th day of training session by Morris water maze test; assay type: functional, organism-based; details: dose 10-30 mg/kg, time 7.0 day
Mus musculus [24] = test: Cognitive enhancing effect in C57BL mouse model of scopolamine-induced memory impairment assessed as number of virtual platform crossing at 10 to 30 mg/kg, po administered for 7 days and measured after 30 mins at 5th day of training session by Morris water maze test; assay type: functional, organism-based; details: dose 10-30 mg/kg, time 7.0 day
[25] = Effect on swimming speed in C57BL mouse model of scopolamine-induced memory impairment model at 10 to 30 mg/kg, po administered for 7 days; assay type: ADME, organism-based; details: in vivo, 168 h, dose 10-30 mg/kg, time 7 day
L02 = test: Cytotoxicity against human L-02 cells assessed as decreased cell viability at 50 uM after 24 hrs by MTT assay; assay type: cell-based; details: l02, 24 h
HepG2 [26] = test: Increase in glucose consumption in human HepG2 cells at 1 mM after 24 hrs by glucose oxidase assay (reference value: 1.36 mM); assay type: functional

IC50 (BV-2 [1]) [nM] | IC50 [15] [nM] | inhibition [17] | permeability [19] | Compound | inhibition (SH-SY5Y) | inhibition (BV-2 [2]) | inhibition (BV-2 [3]) | Activity (PC-12 [4]) [%] | Activity (HepG2 [5]) | viability at 50 µM [6] [%] | inhibition (PC-12 [7]) | Activity [9] | Activity (HepG2 [10]) [mM] | inhibition (BV-2 [12]) | Activity (PC-12 [13]) [%] | viability at 30 µM [14] [%] | inhibition (BV-2 [18]) | Activity (HepG2 [21]) | other results
470 | 1020 | Dose-dependent effect | 1.31 10^-5 cm/s | CC(=O)c1ccc(S(=O)(=O)Nc2ccc(-c3nc(-c4ccnc(Nc5ccc(OC(F)(F)F)cc5)c4)no3)cc2)cc1 | Dose-dependent effect | Active | Active | 68.6 | Non-Toxic | 98.1 | Dose-dependent effect | Dose-dependent effect | 3.28 | Active | 57.1 | 99.1 | Active | – | permeability ([8]; mdck-ii, 2 h): 1.66 10^-5 cm/s; Ratio ([11]; mdck-ii, 2 h): 1.27; cytotoxicity at 24 h, 50 µM [16]: 20%
6940 | 190 | Dose-dependent effect | 1.89 10^-5 cm/s | CC(C)(C)c1ccc(S(=O)(=O)Nc2ccc(-c3nc(-c4ccnc(Nc5cccc(Cl)c5)c4)no3)cc2)cc1 | Dose-dependent effect | Active | Active | 64.9 | Non-Toxic | 97.2 | Dose-dependent effect | Dose-dependent effect | 3.43 | Active | 54.3 | 99.2 | Active | Active | Activity (Mus musculus [20]): Dose-dependent effect; Activity [22]: Non-Toxic; Activity (Mus musculus [23]): Active; Papp B→A at 2 h ([8]; MDCK-MDR1, read-out: permeability): 19.3 ×10⁻⁶ cm/s; Activity (Mus musculus [24]): Active; efflux ratio at 2 h ([11]; MDCK-MDR1): 1.02; Activity [25]: Non-Toxic; Activity (L02): Non-Toxic
– | – | – | – | CN(C)C(=N)NC(=N)N [METFORMIN] | – | – | – | – | – | – | – | – | – | – | – | – | – | – | Activity (HepG2 [26]): 3.28 mM
2440 | 1320 | – | – | CC(C)(C)c1ccc(S(=O)(=O)Nc2ccc(-c3nc(-c4ccnc(Nc5ccc(F)c(F)c5)c4)no3)cc2)cc1 | – | – | – | 60.4 | – | 92.7 | – | – | – | – | 49.6 | 97.7 | – | inactive | –
